According to article PMC4128814, “A High Throughput Screen Identifies Potent and Selective Inhibitors to Human Epithelial 15-Lipoxygenase-2” (PLoS ONE, 2014):

Assays:
[1] = biological target: T1, 5-LOX (Homo sapiens, UniProt P09917); test: Lipoxygenase UV-Vis assay, 5-LOX crude extract; assay type: biochemical; conditions: estimated from one inhibitor point at 20 µM; 10 µM AA
T1 construct: made in house
T1 sequence (P09917 1-674): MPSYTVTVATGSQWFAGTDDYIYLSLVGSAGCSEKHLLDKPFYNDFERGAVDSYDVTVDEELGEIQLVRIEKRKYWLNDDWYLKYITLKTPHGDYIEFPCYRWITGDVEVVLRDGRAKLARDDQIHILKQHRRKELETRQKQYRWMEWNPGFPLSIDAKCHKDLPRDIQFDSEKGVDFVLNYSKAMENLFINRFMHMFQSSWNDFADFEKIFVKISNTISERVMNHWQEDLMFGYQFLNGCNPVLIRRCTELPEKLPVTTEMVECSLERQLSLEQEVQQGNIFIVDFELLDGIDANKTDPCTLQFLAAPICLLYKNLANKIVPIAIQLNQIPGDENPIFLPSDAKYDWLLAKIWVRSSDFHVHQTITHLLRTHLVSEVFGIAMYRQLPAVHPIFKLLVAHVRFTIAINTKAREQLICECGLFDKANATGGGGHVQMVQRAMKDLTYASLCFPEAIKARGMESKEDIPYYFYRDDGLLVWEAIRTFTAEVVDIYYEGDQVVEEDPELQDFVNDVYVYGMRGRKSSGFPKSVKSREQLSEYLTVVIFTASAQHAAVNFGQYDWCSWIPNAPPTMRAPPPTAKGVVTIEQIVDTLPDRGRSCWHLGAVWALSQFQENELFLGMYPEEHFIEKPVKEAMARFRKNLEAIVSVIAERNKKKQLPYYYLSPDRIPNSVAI
Procedure: Human leukocyte 5-lipoxygenase (5-LOX) was expressed as a non-tagged protein and used as a crude ammonium sulfate protein fraction, as published previously, [20].
The reactions were initiated by adding 200 nM 15-LOX-2, 30 nM 12-LOX, 40 nM 15-LOX-1, or approximately 100–300 nM (5–10 µL) of 5-LOX crude extract to a cuvette with 2 mL reaction buffer, constantly stirred using a magnetic stir bar at room temperature (22°C). Reaction buffers used for various LOX isozymes were as follows: 25 mM HEPES (pH 7.3), 0.3 mM CaCl2, 0.1 mM EDTA, 0.2 mM ATP, 0.01% Triton X-100, 10 µM AA for the crude, ammonium sulfate precipitated 5-LOX; and 25 mM HEPES (pH 7.5), 0.01% Triton X-100, 10 µM AA for 15-LOX-2, 15-LOX-1, and 12-LOX. The substrate concentration was quantitatively determined by allowing the enzymatic reaction to go to completion in the presence of 15-LOX-2. […] The data were then plotted against inhibitor concentration, followed by a hyperbolic saturation curve fit (assuming total enzyme concentration [E]≪IC50). […] All inhibitors were stored at −20°C in DMSO. NDGA was utilized as positive control for the selectivity assays for the various LOX isozymes.

[2] = biological target: T2, ovine COX-1 (Ovis aries, UniProt P05979); test: Cyclooxygenase assay (oxygen electrode), COX-1; assay type: biochemical; conditions: estimated from one inhibitor point at 20 µM; 100 µM AA
T2 construct: purchased Cayman Chemical
T2 sequence (P05979 25-600): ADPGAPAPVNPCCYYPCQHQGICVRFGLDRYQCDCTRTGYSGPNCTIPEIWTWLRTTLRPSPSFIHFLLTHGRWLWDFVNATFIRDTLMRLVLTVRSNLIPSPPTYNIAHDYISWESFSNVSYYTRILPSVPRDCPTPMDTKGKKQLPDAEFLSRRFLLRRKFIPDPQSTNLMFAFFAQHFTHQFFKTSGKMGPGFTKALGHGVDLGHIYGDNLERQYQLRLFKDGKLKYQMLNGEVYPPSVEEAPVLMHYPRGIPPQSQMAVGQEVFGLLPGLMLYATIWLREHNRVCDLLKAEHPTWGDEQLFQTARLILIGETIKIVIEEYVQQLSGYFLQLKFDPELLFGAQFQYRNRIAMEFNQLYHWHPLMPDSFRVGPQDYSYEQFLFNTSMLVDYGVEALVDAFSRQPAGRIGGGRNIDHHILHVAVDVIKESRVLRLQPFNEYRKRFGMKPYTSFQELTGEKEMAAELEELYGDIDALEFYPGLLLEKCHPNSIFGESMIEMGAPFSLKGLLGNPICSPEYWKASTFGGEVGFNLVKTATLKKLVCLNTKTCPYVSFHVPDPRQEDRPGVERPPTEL
Procedure: Cyclooxygenase activity assay was performed as previously described. Approximately 3 µg of either ovine COX-1 (COX-1) or human recombinant COX-2 (COX-2) (Cayman Chemical) were added to buffer containing 0.1 M Tris-HCl buffer (pH 8.0), 5 mM EDTA, 2 mM phenol and 1 µM hematin at 37°C. The selected inhibitors were added to the reaction cell, followed by an incubation of 5 minutes with either of the COX enzymes. The reaction was then initiated by adding 100 µM AA in the reaction cell, as indicated in enzymatic protocol (Cayman Chemicals). Data were collected using a Hansatech DW1 oxygen electrode and the consumption of oxygen was recorded. Indomethacin and the solvent (DMSO), were used as positive and negative controls, respectively, and the percent inhibition of the enzyme was calculated by comparing the rates of the samples to the controls.

IC50 [1]	IC50 [2]	SMILES
> 50 µM	> 50 µM	Clc1ccc(-c2nnc(C3CCCCC3)o2)cc1 [MLS000545091]
> 100 µM	> 100 µM	Cc1ccc(CSc2ncn(-c3ccccc3)n2)cc1 [MLS000536924]
